Measured values as given in patent US4737518A, “Lipid derivatives, their production and use” (Takeda Chemical Industries, Ltd., priority 1984, dated 1988).
Structures can show the parent of a compound that is named as a salt.

Columns and labels:
[1] = test system: rabbit platelet aggregation by PAF; experiment: Inhibitory activity on rabbit platelet aggregation by PAF; format: cell-based; settings: Oryctolagus cuniculus, PAF 1×10^-8 M, read-out: rate of inhibition of rabbit platelet aggregation by PAF; for inhibition at 1 µM: test drug 1 × 10^-6 M; for inhibition at 30 µM: test drug 3 × 10^-5 M; for inhibition at 3 µM: test drug 3 × 10^-6 M; for inhibition at 0.3 µM: test drug 3 × 10^-7 M
PAF-induced death = experiment: Prevention activity against PAF-induced death in mice; format: in vivo, mouse (male Jc1-ICR); settings: for (Mice survived)/(mice employed): PAF 50 μg/kg i.v., control 3/16
Description: Prevention activity against PAF-induced death in mice
The test drug was investigated for the preventive activity against shock death to be brought about within 30 min. after 50 μg/kg of PAF in the form of 0.1 ml/kg physiological saline solution was given intravenously to a male Jc1-ICR mouse. The test drug was administered intravenously 5 min. before the injection of PAF.
In accordance with the same procedure as described in Experiment Example 2, the test compounds were investigated for the preventive activity against PAF-induced death in mice.

PAF-induced hypotension = experiment: Restoring activity against PAF-induced hypotension; format: in vivo, rat (male S.D.); settings: 3 min after PAF 1 μg/kg i.v., 1 min after test drug
Description: Restoring activity against PAF-induced hypotension
Male S.D. rats, aged 16 weeks, were employed.
Under anesthesia with pentobarbital, cannulas were inserted into the femoral artery and vein of rats for measurement of blood pressure and for administration of a drug, respectively. Three (3) minutes after intravenous administration of 1 μg/kg (0.25% BAS physiological saline solution; volume of 0.2 ml/kg) of PAF, a test drug (physiological saline solution; volume of 0.5 ml/kg) was administered intravenously, and blood pressure was measured for subsequent 1 hour.
The ratio of hypertension by the test drug to hypotension by PAF was taken as a restoration rate.
Restoration rate (%)=[(Blood pressure just before i.v. administration of a test drug)-(Blood pressure 1 min. after i.v. administration of a test drug)/(Blood pressure just before i.v. administration of PAF)-(Blood pressure just before i.v. administration of a test drug)]×100

HL-60 cells = experiment: Effect on inducing differentiation of HL-60 cells (NBT-positive cells); format: cell-based, human; settings: 6 days; for Emax: Homo sapiens, HL-60, 144 h, at optimal conc., NBT-positive relative to live cells, read-out: Maximum differentiation extent: Differentiation
Description: Assay of the effects on inducing differentiation of HL-60 cells (human promyelocytic leukemia cells) and Neuro-2a cells (mouse neuroblastoma cells): RPMI-1640 medium (Flow Laboratories, Inc.) supplemented with 20% fetal calf serum (M.A. […] The culture was incubated at 37° C. in a 5% CO2 incubator for 6 days. […] The reaction was allowed to proceed at 37° C. for 20 minutes. The reaction was stopped by cooling with ice, and the cells were washed by means of centrifugation, followed by collecting 3-5×10^4 cells and by subjecting to centrifugation using Cytospin centrifuge to prepare a cell smear, which was fixed with methanol and stained with Kernechtrot solution. On each cell smear, the percentage of NBT-positive cells relative to live cells, […] by examination of a minimum of 200 cells, was expressed as the differentiation extent.

[2] = Table 4, 1.0 mg/kg i.v., control 24%
[3] = Table 4, 0.3 mg/kg i.v., control 24%

SMILES	inhibition at 30 µM [1]	inhibition at 3 µM [1]	Restoration rate (PAF-induced hypotension; 0.5 mg/kg i.v.)	Survival rate (PAF-induced death; [2])	inhibition at 0.3 µM [1]	Maximum differentiation extent: Optimal conc. (HL-60 cells)	Emax (HL-60 cells)	also measured
CCCCCCCCCCCCCCCCCCOCC(COC(=O)N(CC[N+](C)(C)C)C(C)=O)OC(C)=O (centres unmarked) [Example 3, 2-O-Acetyl-3-O-[N-acetyl-N-(2'-trimethylammonioethyl)]carbamoyl-1-O-octadecylglycerol iodide]	100%	100%	48%					inhibition at 1 µM [1]: 86%; Survival rate (PAF-induced death; 0.1 mg/kg i.v. 5 min before PAF 50 μg/kg i.v., control 19%): 38%; (Mice survived)/(mice employed) (PAF-induced death; 0.1 mg/kg i.v.): 3/8; Survival rate (PAF-induced death; 1.0 mg/kg i.v. 5 min before PAF 50 μg/kg i.v., control 19%): 100%; (Mice survived)/(mice employed) (PAF-induced death; 1.0 mg/kg i.v.): 8/8; prevention of PAF-induced death (conclusion) (PAF-induced death; 0.1 and 1 mg/kg i.v.): potent drug for prevention of PAF-induced death
CCCCCCCCCCCCCCCCCCNC(=O)OCC(COC(=O)N(CC[N+](C)(C)C)C(C)=O)OC (centres unmarked) [Example 25, 3-O-[N-Acetyl-N-(2'-trimethylammonioethyl)]carbamoyl-2-O-methyl-1-O-octadecylcarbamoylglycerol iodide]	100%	100%		94%				inhibition at 1 µM [1]: 40%; Restoration rate (PAF-induced hypotension; 1.0 mg/kg i.v.): 69%
CCCCCCCCCCCCCCCCCCNC(=O)OCC(COC(=O)N(CC[N+]1(C)CCCC1)C(C)=O)OC (centres unmarked) [Example 35, 3-O-[N-Acetyl-N-(2'-N-methylpyrrolidinioethyl)]carbamoyl-2-O-methyl-1-O-octadecylcarbamoylglycerol hydrochloride]	100%	100%	73%	80%	45%			
CCCCCCCCCCCCCCCCCCNC(=O)OCC(COC(=O)N(CC[N+]1(C)CCCC1)C(=O)OC)OC (centres unmarked) [Example 43, 3-O-[N-Methoxycarbonyl-N-(2'-N-methylpyrrolidinioethyl)]carbamoyl-2-O-methyl-1-O-octadecylcarbamoylglycerol iodide]	100%	100%	83%	100%				
CCCCCCCCCCCCCCCCCCNC(=O)OCC(COC(=O)N(CC1CCC[N+]1(C)CC)C(C)=O)OC (centres unmarked) [Example 45, 3-O-[N-Acetyl-N-(1'-ethyl-1'-methylpyrrolidinio-2'-yl)methyl]carbamoyl-2-O-methyl-1-O-octadecylcarbamoylglycerol iodide]	100%	100%		100%	41%	0.48 µg/mL	72%	Survival rate (PAF-induced death; [3]): 77%
CCCCCCCCCCCCCCCCCCOCC(CN1CC(=O)N(CC[N+](C)(C)C)C1=O)OC(C)=O (centres unmarked) [Example 91, 1-[1-(2-Acetoxy-3-ocatadecyloxy)propyl]-3-(2-trimethylammonioethyl)hydantoin chloride.]	100%	100%	77%	100%	78%			
CCCCCCCCCCCCCCCCCCOCC(CN1CC(=O)N(CC[n+]2ccsc2)C1=O)OC(C)=O (centres unmarked) [Example 92, 1-[1-(2-Acetoxy-3-octadecyloxy)propyl]-3-(2-thiazolioethyl)hydantoin chloride]	100%	100%	77%	100%				Survival rate (PAF-induced death; [3]): 77%
CCCCCCCCCCCCCCCCCCNC(=O)OCC(COC(=O)N(Cc1cccc[n+]1C)C(C)=O)OC (centres unmarked) [Example 104, 3-O-[N-Acetyl-N-(N-methylpyridnio-2-yl)methyl]carbamoyl-2-O-methyl-1-O-octadecylcarbamoylglycerol chloride]	100%	100%			100%			Restoration rate (PAF-induced hypotension; 0.1 mg/kg i.v.): 94%
CCCCCCCCCCCCCCCCCCNC(=O)OCC(CN1CC(=O)N(CC[N+](C)(C)C)C1=O)OC (centres unmarked) [Example 115, 1-[(2-Methoxy-3-octadecylcarbamoyloxy)propyl]-3-[2-(trimethylammonio)ethyl]hydantoin chloride]	100%	100%			9%	1.25 µg/mL	61%	
CCCCCCCCCCCCCCCCNC(=O)OCC(COC(=O)N(Cc1cccc[n+]1CC)C(C)=O)OC (centres unmarked) [Example 169, 3-[N-Acetyl-N-(N'-ethylpyridinio-2-yl)methyl]carbamoyl-1-hexadecylcarbamoyl-2-methylglycerol chloride]	100%	100%			100%	0.32 µg/mL	59%	
CCCCCCCCCCCCCCNC(=O)OCC(COC(=O)N(Cc1cccc[n+]1CC)C(C)=O)OC (centres unmarked) [Example 170, 3-[N-Acetyl-N-(N'-ethylpyridinio-2-yl)methyl]carbamoyl-2-methyl-1-tetradecylcarbamoylglycerol chloride]	100%	100%			100%	0.32 µg/mL	77%	
